Data from patent publication US20050208511A1, “DMBT1 as a clinical marker and uses thereof” (priority 2003, published 2005).

Test system: endometrium
Assay: average endometrial thickness in treated monkeys
Assay type: in vivo, cynomolgus monkeys (Macaca fascicularis)
Settings: Intact/leuprolide (leuprolide for 40 days)

CCNC(=O)[C@@H]1CCCN1C(=O)[C@H](CCCNC(=N)N)NC(=O)[C@H](CC(C)C)NC(=O)[C@@H](CC(C)C)NC(=O)[C@H](Cc1ccc(O)cc1)NC(=O)[C@H](CO)NC(=O)[C@H](Cc1c[nH]c2ccccc12)NC(=O)[C@H](Cc1c[nH]cn1)NC(=O)[C@@H]1CCC(=O)N1 [leuprolide]
Endometrial Thickness (mm): 1.25 mm
